How the values were obtained:
human monocytes = assay: Cytotoxicity in primary monocytes (Alamar Blue); assay type: cell-based; settings: up to 250 μM, 24 h
Experimental: the wound closure was determined as the difference between wound width at times 0 and 72h. This experiment was repeated three times.
Human primary monocytes were isolated from buffy coats of healthy human blood donors and seeded in 24-well plates (500,000 cells/ml in 1ml) for COX-1/2 activity or 96-well plates for cell viability experiments.
Cells were seeded in 96 well plates (5,000 cells/well in 200µl) for cytotoxicity testing (Alamar […]
doses). After 24h, cytotoxicity was evaluated in the wells using the Alamar Blue method. NaF (250µg/ml) was used as a control in this experiment.
Cyclooxygenase (COX) activity
COX1 mediated prostaglandin E2 (PGE2) release. Monocytes were treated with arachidonic […]
were then collected for the determination of PGE2 by enzyme immunoassay (EIA) […]
COX2 mediated prostaglandin E2 (PGE2) release. Monocytes were incubated with LPS (10U/ml) for 24h to induce COX2 protein synthesis. After renewal of medium (serum free), […]
before AA treatment. The activity of COX2 was determined by measuring PGE2 (Cayman) in the supernatants by EIA. Aspirin (10µM) and diclofenac (10µM) were used as control

CXCL8 = CXCL8 (Homo sapiens, UniProt P10145); assay: Selectivity, neutraligand protocol, EGFP-CXCR2+ HEK cells; assay type: cell-based; settings: 10 μM compound, 5 nM CXCL8, EGFP-CXCR2+ HEK cells
Experimental: Figure 6 (a) Selectivity of CCL17 and CCL22 neutraligands towards 10 chemokines according to the “neutraligand protocol”. […] Each column represents the mean (block) ± SD (bars) of n = 3 experiments performed in triplicate. *p < 0.05; **p < 0.01; ***p < 0.005 as compared to chemokine + DMSO. (b) Chemokine neutraligands inhibited CCR4 endocytosis induced by CCL22 or CCL17. EGFP-CCR4^+ HEK cells were incubated for 30 min with DMSO or chemokine (100 nM CCL22 or CCL17) in the presence or absence of test compounds. […] Cell surface EGFP-tagged CCR4 receptors were measured by EGFP antibody labeling and flow cytometry analysis. CCR4 internalization was expressed as a percentage of total receptor surface expression calculated using control cells incubated with DMSO (100%). […] The number of migrating cells in the presence of chemokine and compounds were expressed as the corresponding percentages. Results were analyzed by fitting the experimental curves (% of migrating cells vs log compound concentration) using the Kaleidagraph software program, and the corresponding IC50 values were calculated. […]
Dye loaded cells were placed in the FlexStation 3 (Molecular Devices). Calcium mobilization was measured at 401 and 475 nm emission fluorescence after excitation at 355 nm. […] Raw fluorescence data (at 401 and 475 nm) were exported and the ratio 401/475 was calculated. […]

Chain of CXCL8 (P10145 28-99 limits assumed): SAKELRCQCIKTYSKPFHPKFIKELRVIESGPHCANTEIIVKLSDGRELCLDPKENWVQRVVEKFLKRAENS

Structure (SMILES) | cell toxicity on human monocytes (Alamar Blue) (human monocytes) | effect on calcium responses induced by CXCL8 (CXCL8)
O=C(OCC(O)CO)c1ccccc1O (stereo not shown) [GPN136, 2,3-dihydroxypropyl 2-hydroxybenzoate] | absence of cell toxicity | no effect
CC(C)=CCn1cnc2c1c(=O)n(C)c(=O)n2C [GPN279, 1,3-dimethyl-7-(3-methylbut-2-enyl)-1H-purine-2,6(3H, 7H)-dione] | absence of cell toxicity | no effect
